Entries after “also recorded” stand apart in the source; their conditions may differ.
Columns and labels:
[1] = system: Neuro-2A cells; experiment: Transfection efficiency of PD-nanoplexes with/without saponin, flow cytometry (GFP); format: cell-based, murine
Description: (§1) After biophysical characterisation had established that nanoplexes of the large plasmid DNA and the poly-lysine peptide were formed, cell experiments were performed: transfections. […] Without wishing to be bound by any theory, the latter effect is most likely due to insufficient complexing of DNA. […] JIMT-1-cells (DSMZ no.: ACC 589) and Neuro-2A- cells (DSMZ no.: ACC 148) were transfected with nanoplexes containing relatively large Cas9-GFP-plasmid, with and without GE1741-Co-application or SO1861-Co-application at a non-toxic concentration, when the cell which is to be transfected is considered. The transfection efficiency of all transfection conditions was measured after 48 h incubation time using flow cytometry by comparison to the negative control in terms of fluorescence intensity (for example, cells contacted with the nanoparticles in the absence of saponin). The efficiency of GE1741-based transfections and SO1861-based transfections was also compared with efficiency of Lipofectamine3000™-based transfection of the nanoparticles. Transfections were performed according to protocols commonly known and applied in the field (Clochard et al., 2020; Sama et al., 2018a; Sama et al., 2017; Sama et al., 2018b). […] Transfection efficiency of GE1741-mediated PD-transfection and SO1861-mediated PD-transfections on Neuro-2A cells and JIMT-1 cells was assessed. Cells were transfected with Cas9-GFP-DNA containing PD-nanoplexes, with and without GE1741 or SO1861 (final concentration of the saponin was 2 μg/ml). In Neuro-2A cells and JIMT-1 cells transection efficiency varied between 30% and 40%. Lipofectamin3000 served as reference. n≥3; a significant difference compared to the GE1741-free transfections or SO1861-free transfections was apparent, U-test, p≤0.05.
FIG. 4A, B. Transfection efficiency of saponin-mediated PD (Cas9-GFP)-transfections on Neuro-2A cells (FIG. 4A) and on JIMT-1-cells (FIG. 4B). Neuro-2A cells (A) and JIMT-1 cells (B) were transfected with GFP-DNA (i.e. a plasmid comprising the GFP DNA) bearing PD-nanoplexes or with Cas9-GFP-DNA bearing PD-nanoplexes, with and without the highest non-toxic saponin Co-administration (GE1741 Co-administration at 2 μg/ml or SO1861 Co-administration at 2 μg/ml). While GFP-DNA-transfections reached high efficiencies of around 70%, approximately 40% of all cells expressed GFP after Cas9-GFP-transfection. […] N≥3; *: significant difference compared to the saponin-free transfection (only nuclease), U-test.
JIMT-1-cells (human breast carcinoma) and Neuro-2A-cells (murine neuroblastoma) were transfected with nanoplexes, containing Cas9-GFP-plasmid, with and without saponin GE1741-co-application or saponin SO1861-co-application (that is to say, the saponin is added to the cell culture together with the addition of the nanoparticles comprising the nucleic acid that is to be transfected in the presence of the saponin), in a non-toxic concentration when the saponins are considered. The mass ratios for the peptide and the nucleic acid (plasmid DNA) in the nanoparticles were selected considering the dynamic light scattering (DLS) measurements and considering the aforementioned earlier assessed toxicity and earlier performed efficiency studies. The transfection efficiency of all transfection conditions was measured after 48 h incubation time via flow cytometry by comparison to the negative control in terms of fluorescence intensity (FIG. 4). […]

[2] = system: JIMT-1 cells; experiment: as above; format: cell-based, human; settings: GFP-DNA PD-nanoplexes, saponin 2 μg/ml
Description: as §1, with “Cells were transfected with Cas9-GFP-DNA containing PD-nanoplexes, with and without GE1741 or SO1861 (final concentration of the saponin was 2 μg/ml). In Neuro-2A cells and JIMT-1 cells transection efficiency varied between 30% and 40%. Lipofectamin3000 served as reference. n≥3; a significant difference compared to the GE1741-free transfections or SO1861-free transfections was apparent, U-test, p≤0.05.” left out

[3] = system: cells with which the nanoplexes are contacted; experiment: Toxicity of saponin towards cells during transfection; format: cell-based
Source text: It is part of the invention that the method or the use of the invention is characterized in that the nanoparticle comprises the nanoparticle-forming compound, such as a peptide, such as poly-lysine, and the nucleic acid in a mass ratio in a range of 3:1 to 15:1, preferably in a range of 3:1 to 9:1. Typically, the nanoparticle-forming compound is a poly-lysine peptide such as K16 peptide. Preferred is the method wherein the nucleic acid is a plasmid DNA, at least encoding for a Cas, preferably Cas9 (SEQ ID NO: 1), and optionally also encoding for the gRNA, and wherein the nanoparticles comprise in addition to the plasmid DNA at least one poly-lysine peptide, preferably poly-lysine K16 peptide (poly-lysine peptide consisting of sixteen lysine residues). Alternatively, the poly-lysine peptide is a peptide consisting of 8-25 lysine residues, preferably 10-20, more preferably 12-18. High in vitro transfection efficiency is obtained with the method of the invention when nanoparticles encompassing plasmid DNA, K16 peptide are prepared and applied, and are contacted with cells in the presence of a saponin selected from GE1741 and SO1861, and preferably the saponin is GE1741. Typically, the saponin concentration during transfection of the plasmid DNA into selected target cells in vitro is 1 μg/mL-5 μg/mL, preferably 2-4 μg/mL. […] Cells are typically contacted with a composition comprising the nanoplexes and a separate composition comprising the saponin, preferably GE1741. Thus, typically, the nanoparticles comprise the poly-lysine peptide and the nucleic acid, for example at least a plasmid DNA encoding for a Cas, preferably Cas9 (SEQ ID NO: 1), or a Cas with at least 90% sequence identity with this Cas9, preferably 90-99.5% sequence identity, such as 92%, 93%, 94%, 95% or 95-99%.

[4] = system: Neuro-2A-cells; experiment: Puromycin selection after knock-in of the GFP-Puromycin-LDS; format: cell-based, murine
Source text: FIG. 12A, B. Puromycin selection after Knock-In of the GFP-Puromycin-LDS. After the knock-out of solute carrier Slc26a4 and integration of GFP-Puromycin-Donor sequence, the cells were cultivated for seven passages until Puromycin selection was started. Different concentrations of Puromycin were applied and the cell viability was observed (A, B). […] Plate wells in rows A-C are numbered 1-4 from left to right. Wells C3-4 were empty.
Subsequent to the co-transfection of Cas9-gRNA-Plasmid and LDS in the presence of GE1741, a Puromycin-mediated selection enabled the isolation of transfected cells and facilitates the identification of donor sequence integration into the genome. For this purpose, different Puromycin concentrations were applied to the transfected cells, in the presence of GE1741. The optimal puromycin concentration should optimally kill non-transfected/non-resistant cells, while sparing cells, which received the resistance through the donor sequence.

SMILES | transfection efficiency (cells expressing GFP) ([1]; GFP-DNA PD-nanoplexes, saponin 2 μg/ml, Neuro-2A) | transfection efficiency compared with Lipofectamine3000 ([1]; nanoplexes of relatively large DNA plasmid and poly-lysine, saponin present) | transfection efficiency (cells expressing GFP) [2] | highest non-toxic saponin Co-administration ([3]; Neuro-2A and JIMT-1 transfections) | toxic activity towards the cells ([3]; saponin concentration of 1 μg/mL-5 μg/mL, applied together with the nanoplexes) | effect on cells (selection) ([4]; 0.5 μg/mL) | effect on cells (selection) ([4]; 1 μg/mL) | effect on cells (selection) ([4]; 2 μg/mL) | effect on cells (selection) ([4]; 2-3 μg/mL)
CC(=O)OC1C(C)OC(OC2C(C)OC(OC(=O)[C@]34CCC(C)(C)CC3C3=CCC5[C@@]6(C)CC[C@H](OC7OC(C(=O)O)C(O)C(OC8OCC(O)C(O)C8O)C7OC7OC(CO)C(O)C(O)C7O)[C@@](C)(C=O)C6CC[C@@]5(C)C3(C)CC4O)C(OC3OC(C)C(OC4OCC(O)C(OC5OC(CO)C(O)C(O)C5O)C4O)C(O)C3O)C2O)C(O)C1OC1OCC(O)C(O)C1O (stereo partly drawn) [SO1861] | around 70% | higher than obtainable with current gold standard Lipofectamine3000™ | around 70% | 2 µg/mL | not exhibiting toxic activity |  |  |  | 
COc1ccc(C[C@H](N)C(=O)N[C@H]2[C@@H](O)[C@H](n3cnc4c(N(C)C)ncnc43)O[C@@H]2CO)cc1 [Puromycin] |  |  |  |  |  | no significant effect | incomplete selection; also recorded: decrease of confluence | decrease of confluence | diminished nearly all cells

Reference: patent US20240279684A1, “CYTOSOLIC DELIVERY OF GENOME EDITING TOOLS” (SAPREME TECHNOLOGIES B.V., priority 2021, published 2024)
